Laboratory results from ChEMBL document CHEMBL4483862, “Open-source discovery of chemical leads for next-generation chemoprotective antimalarials” (2018).
pIC50: −log10 of the molar value.

System: Plasmodium berghei
Assay: Luciferase/luciferin-expressing antifolate-resistant parasites were used to infect a culture of HepG2 cells that were pre-incubated with compounds. Infected hepatocytes emit light due to the luciferase reaction. Assay results are presented as the percent inhibition of light emission compared to control. […]
Assay type: functional
Conditions: sporozoite; for IC90: read-out: LUCIFERASE INFECTION ASSAY - IC90

C=CCn1c(C)cc(C(=O)CSc2nc3ccccc3[nH]2)c1C
pIC50 (PBLUC_HILL_SLOPE 12.6, PBLUC_R_SQUARED 0.563, read-out: LUCIFERASE INFECTION ASSAY - IC50): 6.41 | IC90: 0.467 µM

Cc1cc(C)nc(-n2nc(C)cc2Nc2ccccc2)n1
pIC50 (PBLUC_HILL_SLOPE 12.8, PBLUC_R_SQUARED 0.114, read-out: LUCIFERASE INFECTION ASSAY - IC50): < 5.00 | IC90: > 10 µM

Cc1ccc2nc(-c3ccc(NC(=S)NCC(C)(C)CN(C)C)cc3)sc2c1
pIC50 (PBLUC_HILL_SLOPE 12.9, PBLUC_R_SQUARED 0.101, read-out: LUCIFERASE INFECTION ASSAY - IC50): 5.04 | IC90: > 10 µM

CCc1c(C(=O)NCC2CCS(=O)(=O)C2)cnn1-c1ccc(C)cc1 (stereo not given)
pIC50 (PBLUC_HILL_SLOPE 12.8, PBLUC_R_SQUARED 0.197, read-out: LUCIFERASE INFECTION ASSAY - IC50): < 5.00 | IC90: > 10 µM

CC(=O)c1cc2c(N)c(-c3nc(C(C)(C)C)no3)sc2nc1C
pIC50 (PBLUC_HILL_SLOPE 13.1, PBLUC_R_SQUARED 0.312, read-out: LUCIFERASE INFECTION ASSAY - IC50): 5.48 | IC90: 3.91 µM

CCOc1ccc(-c2nc(CC(=O)NCc3ccnc(OC)c3)cs2)cc1
pIC50 (PBLUC_HILL_SLOPE 12.8, PBLUC_R_SQUARED 0.477, read-out: LUCIFERASE INFECTION ASSAY - IC50): 5.54 | IC90: 3.46 µM

CC(=O)c1cnc2sc(C(=O)OC3CCCCC3)c(C)c2c1
pIC50 (PBLUC_HILL_SLOPE 13.1, PBLUC_R_SQUARED 0.209, read-out: LUCIFERASE INFECTION ASSAY - IC50): 5.48 | IC90: 3.88 µM

Cc1ccc(Nc2cc(-c3ccc(CC(C)C)cc3)ncn2)cc1NS(C)(=O)=O
pIC50 (PBLUC_HILL_SLOPE 12.9, PBLUC_R_SQUARED 0.53, read-out: LUCIFERASE INFECTION ASSAY - IC50): 5.15 | IC90: > 8.04 µM

CC1(c2ccc(F)cc2)NC(=O)N(Cc2csc(-c3ccc(F)cc3)n2)C1=O (stereo not given)
pIC50 (PBLUC_HILL_SLOPE 12.9, PBLUC_R_SQUARED 0.121, read-out: LUCIFERASE INFECTION ASSAY - IC50): 5.03 | IC90: > 10 µM

COc1ccccc1-n1c(SCC(=O)c2c[nH]c3ccccc23)nnc1-c1cccs1
pIC50 (PBLUC_HILL_SLOPE 12.6, PBLUC_R_SQUARED 0.859, read-out: LUCIFERASE INFECTION ASSAY - IC50): 6.95 | IC90: 0.134 µM

CCOC(=O)c1[nH]c2cc(OC)c(OC)cc2c1NC(=O)c1ccccc1OC
pIC50 (PBLUC_HILL_SLOPE 12.7, PBLUC_R_SQUARED 0.193, read-out: LUCIFERASE INFECTION ASSAY - IC50): 5.09 | IC90: > 8.28 µM

O=C(CN1CCC(Cc2ccccc2)CC1)NCc1ccc(F)cc1
pIC50 (PBLUC_HILL_SLOPE 12.9, PBLUC_R_SQUARED 0.271, read-out: LUCIFERASE INFECTION ASSAY - IC50): 5.46 | IC90: 4.07 µM

Cc1nn(C)c(C)c1NC(=O)C(C)Sc1nnc(Nc2ccc(Oc3ccccc3)cc2)s1 (stereo not given)
pIC50 (PBLUC_HILL_SLOPE 13, PBLUC_R_SQUARED 0.117, read-out: LUCIFERASE INFECTION ASSAY - IC50): 5.05 | IC90: > 10 µM

CC(Nc1ccc(N(C)C(C)C)c(F)c1)C(=O)N1CCCC1 (stereo not given)
pIC50 (PBLUC_HILL_SLOPE 12.8, PBLUC_R_SQUARED 0.621, read-out: LUCIFERASE INFECTION ASSAY - IC50): 5.10 | IC90: 9.36 µM

CC(C)(C)c1ccc(Oc2ccc(/C=C/C(=O)c3ccc(NC4=NCCCS4)cc3)cc2[N+](=O)[O-])cc1
pIC50 (PBLUC_HILL_SLOPE 13, PBLUC_R_SQUARED 0.461, read-out: LUCIFERASE INFECTION ASSAY - IC50): 5.06 | IC90: > 10 µM

FC(F)Sc1ccc(Nc2ncnc3sccc23)cc1
pIC50 (PBLUC_HILL_SLOPE 12.8, PBLUC_R_SQUARED 0.441, read-out: LUCIFERASE INFECTION ASSAY - IC50): 5.04 | IC90: > 10 µM

Cc1onc(-c2ccccc2)c1-c1ccnn1C(=O)Nc1cccc(C(F)(F)F)c1
pIC50 (PBLUC_HILL_SLOPE 13.1, PBLUC_R_SQUARED 0.207, read-out: LUCIFERASE INFECTION ASSAY - IC50): 5.14 | IC90: > 8 µM

CC1CCc2c(C(=O)Nc3cccc(Br)c3)csc2C1 (stereo not given)
pIC50 (PBLUC_HILL_SLOPE 12.9, PBLUC_R_SQUARED 0.0655, read-out: LUCIFERASE INFECTION ASSAY - IC50): 5.03 | IC90: > 9.42 µM

O=C(Nc1cc(-c2cccs2)nn1-c1ccc(I)cc1)C1CCC1
pIC50 (PBLUC_HILL_SLOPE 12.7, PBLUC_R_SQUARED 0.261, read-out: LUCIFERASE INFECTION ASSAY - IC50): 5.21 | IC90: > 7.34 µM

O=C(Oc1ccc(/C=N/Nc2nc3ccccc3s2)c(OC(=O)c2ccco2)c1)c1ccco1
pIC50 (PBLUC_HILL_SLOPE 13.1, PBLUC_R_SQUARED 0.411, read-out: LUCIFERASE INFECTION ASSAY - IC50): 5.04 | IC90: > 10 µM

C=CCn1c2ccccc2n2nc(C)c(C(=O)/C=C/c3ccccn3)c12
pIC50 (PBLUC_HILL_SLOPE 13.1, PBLUC_R_SQUARED 0.157, read-out: LUCIFERASE INFECTION ASSAY - IC50): 5.47 | IC90: 4.04 µM

N#Cc1ccc(-c2cnc3cnc(-c4cccc(C(N)=O)c4)cn23)cc1
pIC50 (PBLUC_HILL_SLOPE 12.9, PBLUC_R_SQUARED 0.447, read-out: LUCIFERASE INFECTION ASSAY - IC50): 5.14 | IC90: 8.67 µM

C/C(=N\NC(=S)NCC(C)(C)C)c1cc(F)cc(Cl)c1O
pIC50 (PBLUC_HILL_SLOPE 12.9, PBLUC_R_SQUARED 0.356, read-out: LUCIFERASE INFECTION ASSAY - IC50): 5.01 | IC90: > 9.94 µM

CC(C)c1ccc(-n2c(Sc3ccc(C(F)(F)F)cc3[N+](=O)[O-])nnc2-c2ccc(C(C)(C)C)cc2)cc1
pIC50 (PBLUC_HILL_SLOPE 12.8, PBLUC_R_SQUARED 0.26, read-out: LUCIFERASE INFECTION ASSAY - IC50): 5.28 | IC90: > 6.1 µM

Clc1ccc(-c2n[nH]cc2CNCC2CN(Cc3ccccc3)CCO2)cc1 (stereo not given)
pIC50 (PBLUC_HILL_SLOPE 12.9, PBLUC_R_SQUARED 0.0772, read-out: LUCIFERASE INFECTION ASSAY - IC50): 5.02 | IC90: > 10 µM

Cc1ccc(C(=O)NC(C)C)n1C
pIC50 (PBLUC_HILL_SLOPE 12.7, PBLUC_R_SQUARED 0.475, read-out: LUCIFERASE INFECTION ASSAY - IC50): 6.42 | IC90: 0.447 µM

Cc1ccc2nc(CN3CCN(C(c4ccc(F)cc4)c4ccc(F)cc4)CC3)cc(=O)n2c1
pIC50 (PBLUC_HILL_SLOPE 12.7, PBLUC_R_SQUARED 0.219, read-out: LUCIFERASE INFECTION ASSAY - IC50): 5.46 | IC90: 4.14 µM

O=C(Nc1nc2cc(C(F)(F)F)ccc2n1Cc1ccco1)C1CCC1
pIC50 (PBLUC_HILL_SLOPE 12.7, PBLUC_R_SQUARED 0.404, read-out: LUCIFERASE INFECTION ASSAY - IC50): 5.46 | IC90: 4.08 µM

Fc1ccc(-c2csc3ncnc(NC4CCN(Cc5ccccc5)C4)c23)cc1 (stereo not given)
pIC50 (PBLUC_HILL_SLOPE 12.7, PBLUC_R_SQUARED 0.103, read-out: LUCIFERASE INFECTION ASSAY - IC50): 5.04 | IC90: > 10 µM

O=C(CSc1cccc[n+]1[O-])N1N=C2/C(=C/c3ccccc3)CCCC2C1c1ccccc1 (stereo not given)
pIC50 (PBLUC_HILL_SLOPE 13.0, 1.48, PBLUC_R_SQUARED 0.151, 0.616, read-out: LUCIFERASE INFECTION ASSAY - IC50): 5.58 | IC90: 6.17 µM

CCC(C)NC(=O)c1c(NC(=O)C(C)Oc2ccccc2)nc2ccc(C)cn12 (stereo not given)
pIC50 (PBLUC_HILL_SLOPE 12.7, PBLUC_R_SQUARED 0.125, read-out: LUCIFERASE INFECTION ASSAY - IC50): 5.10 | IC90: > 8.37 µM

CCC(C)NC(=O)c1c(NC(=O)c2cccc(C(F)(F)F)c2)nc2ccc(C)cn12 (stereo not given)
pIC50 (PBLUC_HILL_SLOPE 12.7, PBLUC_R_SQUARED 0.269, read-out: LUCIFERASE INFECTION ASSAY - IC50): 5.60 | IC90: 2.99 µM

CN(C)S(=O)(=O)c1cccc(COC(=O)C2(c3ccc(F)cc3)CCCC2)c1
pIC50 (PBLUC_HILL_SLOPE 13, PBLUC_R_SQUARED 0.517, read-out: LUCIFERASE INFECTION ASSAY - IC50): 5.05 | IC90: > 10 µM

CC(c1ccc(-n2cncn2)cc1)N(C)CC(=O)Nc1ccc(OC(F)(F)F)cc1 (stereo not given)
pIC50 (PBLUC_HILL_SLOPE 12.9, PBLUC_R_SQUARED 0.556, read-out: LUCIFERASE INFECTION ASSAY - IC50): 5.01 | IC90: > 10 µM

Clc1ccc(-c2nc(-c3ccccc3)c(-c3ccccc3)n2CCc2ccc(Cl)cc2Cl)cc1
pIC50 (PBLUC_HILL_SLOPE 13, PBLUC_R_SQUARED 0.179, read-out: LUCIFERASE INFECTION ASSAY - IC50): 5.02 | IC90: > 10 µM

CN(C)c1cccc(-c2cnc3cnc(-c4cnn(C)c4)cn23)c1
pIC50 (PBLUC_HILL_SLOPE 12.7, PBLUC_R_SQUARED 0.283, read-out: LUCIFERASE INFECTION ASSAY - IC50): 5.05 | IC90: > 10.4 µM

CCOc1ccc(Oc2ccc(S(=O)(=O)Oc3ccccc3C(N)=O)cc2)cc1
pIC50 (PBLUC_HILL_SLOPE 12.7, PBLUC_R_SQUARED 0.259, read-out: LUCIFERASE INFECTION ASSAY - IC50): 5.55 | IC90: 3.39 µM

Cc1cc(C(=O)CN(C)Cc2nc(=O)c3ccccc3[nH]2)c(C)n1Cc1ccc(F)cc1
pIC50 (PBLUC_HILL_SLOPE 13.1, PBLUC_R_SQUARED 0.161, read-out: LUCIFERASE INFECTION ASSAY - IC50): 5.05 | IC90: > 10 µM

Cc1ccc(NC(=O)Cc2nc(-c3ccc4c(c3)OCO4)cs2)c(C)c1
pIC50 (PBLUC_HILL_SLOPE 12.9, PBLUC_R_SQUARED 0.436, read-out: LUCIFERASE INFECTION ASSAY - IC50): 5.05 | IC90: > 10 µM

Cc1ccc(NC(=S)Nc2cccc(C(F)(F)F)c2)c(C)c1
pIC50 (PBLUC_HILL_SLOPE 13, PBLUC_R_SQUARED 0.213, read-out: LUCIFERASE INFECTION ASSAY - IC50): 5.01 | IC90: > 10.2 µM
